Legend:
[1] = tested on: Tyrosine-protein kinase ABL1 (Homo sapiens), P00519 [M351T]; settings: Compound concentration 1000.0 nM
[2] = tested on: Tyrosine-protein kinase ABL1 (Homo sapiens), P00519 [T315I]; settings: Compound concentration 1000.0 nM
[3] = biological target: Atypical kinase COQ8A, mitochondrial (Homo sapiens) (UniProt Q8NI60); settings: Compound concentration 1000.0 nM
[4] = biological target: Ankyrin repeat and protein kinase domain-containing protein 1 (Homo sapiens) (UniProt Q8NFD2); settings: Compound concentration 1000.0 nM
[5] = biological target: Aurora kinase C (Homo sapiens) (UniProt Q9UQB9); settings: Compound concentration 1000.0 nM
[6] = biological target: Mitogen-activated protein kinase kinase kinase 12 (Homo sapiens) (UniProt Q12852); settings: Compound concentration 1000.0 nM
[7] = biological target: Dual specificity tyrosine-phosphorylation-regulated kinase 1B (Homo sapiens) (UniProt Q9Y463); settings: Compound concentration 1000.0 nM
[8] = biological target: Serine/threonine-protein kinase/endoribonuclease IRE1 (Homo sapiens) (UniProt O75460); settings: Compound concentration 1000.0 nM
Sequence of Serine/threonine-protein kinase/endoribonuclease IRE1 (Homo sapiens) (O75460 19-977 limits assumed): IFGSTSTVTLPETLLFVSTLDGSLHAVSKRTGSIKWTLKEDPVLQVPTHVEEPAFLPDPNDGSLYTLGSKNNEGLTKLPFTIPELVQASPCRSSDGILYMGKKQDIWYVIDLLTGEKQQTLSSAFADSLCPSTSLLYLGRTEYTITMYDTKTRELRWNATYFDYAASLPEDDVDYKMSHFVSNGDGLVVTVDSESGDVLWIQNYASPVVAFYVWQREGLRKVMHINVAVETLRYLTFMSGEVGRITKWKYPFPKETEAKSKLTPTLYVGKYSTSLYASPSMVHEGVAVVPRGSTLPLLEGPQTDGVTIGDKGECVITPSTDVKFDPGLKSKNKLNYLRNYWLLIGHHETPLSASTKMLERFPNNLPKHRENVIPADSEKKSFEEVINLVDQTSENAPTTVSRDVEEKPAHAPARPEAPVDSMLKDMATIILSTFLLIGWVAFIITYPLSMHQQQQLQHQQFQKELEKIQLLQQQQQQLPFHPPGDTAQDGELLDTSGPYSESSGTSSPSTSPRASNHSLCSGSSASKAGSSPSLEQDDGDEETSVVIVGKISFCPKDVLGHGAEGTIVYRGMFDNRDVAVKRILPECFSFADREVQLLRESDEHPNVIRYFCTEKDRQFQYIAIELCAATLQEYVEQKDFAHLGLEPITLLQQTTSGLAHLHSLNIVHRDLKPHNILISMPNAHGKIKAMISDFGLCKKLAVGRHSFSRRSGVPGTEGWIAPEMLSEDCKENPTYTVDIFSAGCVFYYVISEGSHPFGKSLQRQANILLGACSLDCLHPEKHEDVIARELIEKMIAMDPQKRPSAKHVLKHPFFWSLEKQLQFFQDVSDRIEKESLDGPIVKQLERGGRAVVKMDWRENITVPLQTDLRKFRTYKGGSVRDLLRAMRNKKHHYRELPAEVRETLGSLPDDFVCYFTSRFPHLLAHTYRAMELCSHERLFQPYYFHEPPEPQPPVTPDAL

[9] = biological target: Tyrosine-protein kinase Fes/Fps (Homo sapiens) (UniProt P07332); settings: Compound concentration 1000.0 nM
[10] = biological target: Fibroblast growth factor receptor 4 (Homo sapiens) (UniProt P22455); settings: Compound concentration 1000.0 nM
[11] = biological target: Glycogen synthase kinase-3 beta (Homo sapiens) (UniProt P49841); settings: Compound concentration 1000.0 nM
Sequence of Glycogen synthase kinase-3 beta (Homo sapiens) (P49841 whole entry, looked up): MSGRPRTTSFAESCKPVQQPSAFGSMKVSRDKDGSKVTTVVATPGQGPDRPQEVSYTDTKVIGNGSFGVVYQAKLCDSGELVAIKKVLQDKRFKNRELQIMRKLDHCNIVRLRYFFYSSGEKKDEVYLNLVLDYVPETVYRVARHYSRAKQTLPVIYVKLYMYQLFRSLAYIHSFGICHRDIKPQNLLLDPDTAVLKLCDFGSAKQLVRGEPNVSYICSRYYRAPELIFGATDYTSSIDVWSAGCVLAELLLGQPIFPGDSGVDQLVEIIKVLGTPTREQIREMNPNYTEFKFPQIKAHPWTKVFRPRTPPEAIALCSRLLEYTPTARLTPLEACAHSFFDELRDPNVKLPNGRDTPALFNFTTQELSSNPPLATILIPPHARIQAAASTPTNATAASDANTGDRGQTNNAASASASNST

[12] = biological target: Homeodomain-interacting protein kinase 4 (Homo sapiens) (UniProt Q8NE63); settings: Compound concentration 1000.0 nM
[13] = biological target: Tyrosine-protein kinase JAK1 (Homo sapiens) (UniProt P23458); settings: Compound concentration 1000.0 nM
[14] = tested on: Mast/stem cell growth factor receptor Kit (Homo sapiens), P10721 [D816H]; settings: Compound concentration 1000.0 nM
[15] = biological target: Serine/threonine-protein kinase LATS1 (Homo sapiens) (UniProt O95835); settings: Compound concentration 1000.0 nM
[16] = biological target: Tyrosine-protein kinase Lck (Homo sapiens) (UniProt P06239); settings: Compound concentration 1000.0 nM
[17] = biological target: Serine/threonine-protein kinase 10 (Homo sapiens) (UniProt O94804); settings: Compound concentration 1000.0 nM
[18] = tested on: Leucine-rich repeat serine/threonine-protein kinase 2 (Homo sapiens), Q5S007 [G2019S]; settings: Compound concentration 1000.0 nM
[19] = biological target: Mitogen-activated protein kinase kinase kinase 2 (Homo sapiens) (UniProt Q9Y2U5); settings: Compound concentration 1000.0 nM
[20] = biological target: Mitogen-activated protein kinase kinase kinase 3 (Homo sapiens) (UniProt Q99759); settings: Compound concentration 1000.0 nM
[21] = biological target: Mitogen-activated protein kinase kinase kinase 4 (Homo sapiens) (UniProt Q9Y6R4); settings: Compound concentration 1000.0 nM
[22] = biological target: Mitogen-activated protein kinase kinase kinase kinase 2 (Homo sapiens) (UniProt Q12851); settings: Compound concentration 1000.0 nM
Sequence of Mitogen-activated protein kinase kinase kinase kinase 2 (Homo sapiens) (Q12851 whole entry): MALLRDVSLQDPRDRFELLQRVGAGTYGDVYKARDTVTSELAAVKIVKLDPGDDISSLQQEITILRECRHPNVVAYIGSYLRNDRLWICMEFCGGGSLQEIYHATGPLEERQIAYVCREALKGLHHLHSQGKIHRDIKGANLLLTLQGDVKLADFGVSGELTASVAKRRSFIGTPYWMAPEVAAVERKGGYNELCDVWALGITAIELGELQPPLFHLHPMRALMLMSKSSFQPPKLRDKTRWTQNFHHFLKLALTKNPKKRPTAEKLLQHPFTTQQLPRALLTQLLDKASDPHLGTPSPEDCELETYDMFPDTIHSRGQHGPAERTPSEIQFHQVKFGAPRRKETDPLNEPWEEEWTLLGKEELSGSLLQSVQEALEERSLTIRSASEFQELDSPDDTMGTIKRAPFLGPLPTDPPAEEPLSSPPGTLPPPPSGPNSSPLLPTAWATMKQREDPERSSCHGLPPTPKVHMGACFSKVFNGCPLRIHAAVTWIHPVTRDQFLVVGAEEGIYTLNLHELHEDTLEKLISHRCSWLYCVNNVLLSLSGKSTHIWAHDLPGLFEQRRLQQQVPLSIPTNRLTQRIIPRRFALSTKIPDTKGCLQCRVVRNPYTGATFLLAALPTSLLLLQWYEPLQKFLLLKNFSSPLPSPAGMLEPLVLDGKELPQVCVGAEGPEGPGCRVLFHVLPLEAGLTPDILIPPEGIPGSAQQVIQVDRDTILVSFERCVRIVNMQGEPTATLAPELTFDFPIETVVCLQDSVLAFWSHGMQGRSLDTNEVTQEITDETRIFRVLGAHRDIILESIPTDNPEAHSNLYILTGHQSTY

[23] = biological target: MAP kinase-activated protein kinase 2 (Homo sapiens) (UniProt P49137); settings: Compound concentration 1000.0 nM
[24] = biological target: Misshapen-like kinase 1 (Homo sapiens) (UniProt Q8N4C8); settings: Compound concentration 1000.0 nM
Sequence of Misshapen-like kinase 1 (Homo sapiens) (Q8N4C8 whole entry, looked up): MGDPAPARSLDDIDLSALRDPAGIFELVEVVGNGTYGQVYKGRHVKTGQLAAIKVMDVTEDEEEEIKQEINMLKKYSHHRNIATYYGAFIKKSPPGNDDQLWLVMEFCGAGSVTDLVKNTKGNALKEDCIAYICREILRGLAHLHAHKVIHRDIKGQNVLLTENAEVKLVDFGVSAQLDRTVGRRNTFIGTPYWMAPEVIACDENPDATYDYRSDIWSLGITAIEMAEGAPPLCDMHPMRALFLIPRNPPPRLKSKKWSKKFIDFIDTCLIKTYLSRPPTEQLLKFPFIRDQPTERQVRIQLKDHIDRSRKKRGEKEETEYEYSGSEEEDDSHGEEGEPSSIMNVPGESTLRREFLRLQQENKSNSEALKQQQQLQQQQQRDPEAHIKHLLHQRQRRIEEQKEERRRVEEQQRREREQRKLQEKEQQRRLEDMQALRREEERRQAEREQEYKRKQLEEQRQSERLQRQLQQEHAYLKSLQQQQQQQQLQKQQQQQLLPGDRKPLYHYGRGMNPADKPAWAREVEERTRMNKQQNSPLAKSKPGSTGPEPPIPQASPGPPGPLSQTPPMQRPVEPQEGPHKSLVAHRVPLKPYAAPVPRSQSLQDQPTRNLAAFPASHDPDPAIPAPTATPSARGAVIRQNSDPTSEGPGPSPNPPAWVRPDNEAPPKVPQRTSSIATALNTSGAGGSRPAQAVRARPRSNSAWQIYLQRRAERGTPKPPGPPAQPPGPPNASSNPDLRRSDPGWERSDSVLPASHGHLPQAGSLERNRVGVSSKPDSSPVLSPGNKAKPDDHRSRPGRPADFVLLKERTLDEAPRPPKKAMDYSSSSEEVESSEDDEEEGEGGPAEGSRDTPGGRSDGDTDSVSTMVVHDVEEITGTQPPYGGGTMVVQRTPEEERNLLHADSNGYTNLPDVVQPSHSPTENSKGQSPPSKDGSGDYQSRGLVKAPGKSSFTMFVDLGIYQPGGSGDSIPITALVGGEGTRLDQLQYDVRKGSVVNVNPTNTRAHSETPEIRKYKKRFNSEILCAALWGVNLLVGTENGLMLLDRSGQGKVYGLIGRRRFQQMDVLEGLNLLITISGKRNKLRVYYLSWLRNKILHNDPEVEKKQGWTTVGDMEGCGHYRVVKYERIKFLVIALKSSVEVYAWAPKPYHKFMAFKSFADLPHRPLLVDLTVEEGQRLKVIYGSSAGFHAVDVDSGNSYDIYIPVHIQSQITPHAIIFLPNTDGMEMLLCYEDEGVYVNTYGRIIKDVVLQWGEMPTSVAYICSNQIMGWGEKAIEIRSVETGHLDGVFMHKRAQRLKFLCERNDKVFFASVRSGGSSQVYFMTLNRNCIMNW

[25] = biological target: MAP kinase-interacting serine/threonine-protein kinase 2 (Homo sapiens) (UniProt Q9HBH9); settings: Compound concentration 1000.0 nM
[26] = biological target: Myosin light chain kinase (Homo sapiens) (UniProt Q32MK0); settings: Compound concentration 1000.0 nM
[27] = biological target: Serine/threonine-protein kinase MRCK alpha (Homo sapiens) (UniProt Q5VT25); settings: Compound concentration 1000.0 nM
[28] = biological target: Myosin light chain kinase family member 4 (Homo sapiens) (UniProt Q86YV6); settings: Compound concentration 1000.0 nM
Sequence of Myosin light chain kinase family member 4 (Homo sapiens) (Q86YV6 whole entry): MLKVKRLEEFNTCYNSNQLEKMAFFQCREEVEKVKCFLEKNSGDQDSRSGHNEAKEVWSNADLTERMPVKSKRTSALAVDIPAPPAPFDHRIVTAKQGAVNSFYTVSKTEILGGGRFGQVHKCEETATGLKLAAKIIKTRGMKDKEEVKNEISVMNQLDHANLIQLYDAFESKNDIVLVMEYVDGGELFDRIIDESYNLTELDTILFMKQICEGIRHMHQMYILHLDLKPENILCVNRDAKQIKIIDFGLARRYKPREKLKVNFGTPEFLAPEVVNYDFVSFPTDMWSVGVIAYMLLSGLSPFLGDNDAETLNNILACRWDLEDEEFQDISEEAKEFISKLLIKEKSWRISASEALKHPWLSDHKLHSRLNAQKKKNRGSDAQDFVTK

[29] = biological target: Serine/threonine-protein kinase Nek7 (Homo sapiens) (UniProt Q8TDX7); settings: Compound concentration 1000.0 nM
[30] = biological target: Cyclin-dependent kinase 17 (Homo sapiens) (UniProt Q00537); settings: Compound concentration 1000.0 nM
[31] = biological target: Phosphatidylinositol 4,5-bisphosphate 3-kinase catalytic subunit alpha isoform (Homo sapiens) (UniProt P42336); settings: Compound concentration 1000.0 nM
[32] = tested on: Phosphatidylinositol 4,5-bisphosphate 3-kinase catalytic subunit alpha isoform (Homo sapiens), P42336 [M1043I]; settings: Compound concentration 1000.0 nM
[33] = biological target: Phosphatidylinositol 4,5-bisphosphate 3-kinase catalytic subunit beta isoform (Homo sapiens) (UniProt P42338); settings: Compound concentration 1000.0 nM
[34] = biological target: Phosphatidylinositol 4,5-bisphosphate 3-kinase catalytic subunit gamma isoform (Homo sapiens) (UniProt P48736); settings: Compound concentration 1000.0 nM
[35] = biological target: RAF proto-oncogene serine/threonine-protein kinase (Homo sapiens) (UniProt P04049); settings: Compound concentration 1000.0 nM
[36] = biological target: Ribosomal protein S6 kinase beta-1 (Homo sapiens) (UniProt P23443); settings: Compound concentration 1000.0 nM
[37] = biological target: Serine/threonine-protein kinase SBK1 (Homo sapiens) (UniProt Q52WX2); settings: Compound concentration 1000.0 nM
[38] = biological target: Uncharacterized serine/threonine-protein kinase SBK3 (Homo sapiens) (UniProt P0C264); settings: Compound concentration 1000.0 nM
[39] = biological target: STE20-like serine/threonine-protein kinase (Homo sapiens) (UniProt Q9H2G2); settings: Compound concentration 1000.0 nM
[40] = biological target: Serine/threonine-protein kinase TAO1 (Homo sapiens) (UniProt Q7L7X3); settings: Compound concentration 1000.0 nM
[41] = biological target: Non-receptor tyrosine-protein kinase TYK2 (Homo sapiens) (UniProt P29597); settings: Compound concentration 1000.0 nM
[42] = biological target: D(3) dopamine receptor (Homo sapiens) (UniProt P35462); settings: Compound concentration 10.0 uM
[43] = biological target: Delta-type opioid receptor (Homo sapiens, UniProt P41143); settings: Compound concentration 10.0 uM
Sequence of Delta-type opioid receptor (P41143 whole entry): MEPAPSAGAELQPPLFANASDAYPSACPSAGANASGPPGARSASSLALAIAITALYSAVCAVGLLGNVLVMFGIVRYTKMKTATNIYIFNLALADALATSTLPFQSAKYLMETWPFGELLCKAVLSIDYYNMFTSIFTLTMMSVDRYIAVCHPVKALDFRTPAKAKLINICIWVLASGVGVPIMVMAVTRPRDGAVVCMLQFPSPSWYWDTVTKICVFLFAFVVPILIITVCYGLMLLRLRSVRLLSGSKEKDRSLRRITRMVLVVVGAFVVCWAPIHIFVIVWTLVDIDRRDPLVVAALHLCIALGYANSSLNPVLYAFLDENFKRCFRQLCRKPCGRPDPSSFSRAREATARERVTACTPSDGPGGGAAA

[44] = biological target: Histamine H3 receptor (Homo sapiens) (UniProt Q9Y5N1); settings: Compound concentration 10.0 uM
[45] = biological target: Beta-2 adrenergic receptor (Homo sapiens) (UniProt P07550); settings: Compound concentration 10.0 uM

Sequence of Atypical kinase COQ8A, mitochondrial (Homo sapiens) (Q8NI60 163-647 limits assumed): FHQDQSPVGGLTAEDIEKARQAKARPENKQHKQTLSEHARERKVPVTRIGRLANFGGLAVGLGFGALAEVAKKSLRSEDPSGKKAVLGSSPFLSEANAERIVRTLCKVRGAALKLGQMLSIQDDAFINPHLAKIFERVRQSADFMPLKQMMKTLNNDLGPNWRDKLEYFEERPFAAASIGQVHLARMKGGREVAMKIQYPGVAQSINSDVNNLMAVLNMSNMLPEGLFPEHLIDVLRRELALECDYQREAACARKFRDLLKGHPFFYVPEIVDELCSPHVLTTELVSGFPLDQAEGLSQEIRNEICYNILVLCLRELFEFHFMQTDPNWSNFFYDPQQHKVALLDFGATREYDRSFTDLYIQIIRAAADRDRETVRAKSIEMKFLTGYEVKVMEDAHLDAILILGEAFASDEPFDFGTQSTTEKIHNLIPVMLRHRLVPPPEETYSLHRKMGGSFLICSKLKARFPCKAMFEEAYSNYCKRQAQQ

CC(=O)Nc1c(C(C)=O)c(=O)n(C)c2nc(-c3ccc(Cl)cc3Cl)c(-c3ccc(Cl)cc3)cc12 [NAPHTHYRIDINONE]
inactive: residual activity [1] 100% | residual activity [2] 89% | residual activity [3] 100% | residual activity [4] 100% | residual activity [5] 100% | residual activity [6] 100% | residual activity [8] 100% | residual activity [9] 100% | residual activity [10] 100% | residual activity [11] 100% | residual activity [12] 89% | residual activity [13] 100% | residual activity [14] 100% | residual activity [15] 98% | residual activity [16] 100% | residual activity [17] 100% | residual activity [18] 100% | residual activity [19] 100% | residual activity [20] 100% | residual activity [21] 89% | residual activity [22] 92% | residual activity [23] 100% | residual activity [24] 100% | residual activity [25] 100% | residual activity [26] 100% | residual activity [27] 100% | residual activity [28] 100% | residual activity [29] 100% | residual activity [30] 100% | residual activity [31] 100% | residual activity [32] 100% | residual activity [33] 100% | residual activity [34] 78% | residual activity [35] 100% | residual activity [36] 95% | residual activity [37] 80% | residual activity [38] 100% | residual activity [39] 100% | residual activity [40] 89% | residual activity [41] 100% | inhibition [42] 14.3% | inhibition [43] -2.35% | inhibition [44] -2.68% | inhibition [45] 12.6%
active: residual activity [7] 35%

CC(=O)c1c(NS(C)(=O)=O)c2cc(-c3ccc(Cl)cc3)c(-c3ccc(Cl)cc3Cl)nc2n(C)c1=O [MRL-CB1-NC]
inactive: residual activity [1] 87% | residual activity [2] 86% | residual activity [3] 100% | residual activity [4] 70% | residual activity [5] 100% | residual activity [6] 100% | residual activity [7] 100% | residual activity [8] 77% | residual activity [9] 87% | residual activity [10] 100% | residual activity [11] 97% | residual activity [12] 93% | residual activity [13] 93% | residual activity [14] 70% | residual activity [15] 81% | residual activity [16] 100% | residual activity [17] 100% | residual activity [18] 100% | residual activity [19] 93% | residual activity [20] 100% | residual activity [21] 95% | residual activity [22] 82% | residual activity [23] 80% | residual activity [24] 100% | residual activity [25] 75% | residual activity [26] 91% | residual activity [27] 95% | residual activity [28] 100% | residual activity [29] 100% | residual activity [30] 100% | residual activity [31] 100% | residual activity [32] 100% | residual activity [33] 100% | residual activity [34] 82% | residual activity [35] 100% | residual activity [36] 95% | residual activity [37] 77% | residual activity [38] 95% | residual activity [39] 100% | residual activity [40] 92% | residual activity [41] 94% | inhibition [42] 5.91% | inhibition [44] 0.553% | inhibition [45] 5.51%
active: inhibition [43] 73.6%

From ChEMBL document CHEMBL4507287, “Data for DCP probe MRL-650” (2021)
